In patent publication US11130771B2, “Prodrugs of Naltrexone, Nalmefene and derivatives thereof” (TAIWANJ PHARMACEUTICALS CO., LTD., priority 2018, dated 2021):

Assay: Pharmacokinetic Measurement in BALB/c Mice (oral gavage, plasma LC-MS/MS)
Conditions: parent compound after oral administration, compared with prodrug and Naltrexone from prodrug; FIGS. 1 and 2
Protocol: This study tested the bioavailability of different test compounds in rats, by oral gavage administration, at prescribed dose levels.
Male BALB/c mice, body weight approximately 1925 g, were purchased from BioLASCO Taiwan Co., Ltd. and kept in the Animal Laboratory of Industrial
LC-MS/MS: ABSCIEX 4000 QTRAP LC-MS/MS System; Polarity: positive mode; Column: XBridge RP18, 3.5 μm, 4.6×20 mm; Flow rate: 0.7 mL/min; Injection volume: 10 μL; Temperature: Room temperature; Running time: 5 min.
Blood aliquots (40 μL) were collected from jugular vein catheterized BALB/c in tubes coated with K2-EDTA, mixed gently, then kept on ice and centrifuged at 7000×g for 15 minutes at 4° C. The plasma was then harvested and kept frozen at −80° C. until further processing.
The plasma samples were processed using acetonitrile precipitation and analyzed by LC-MS/MS. A plasma calibration curve was generated. […]
The spiked plasma samples were processed together with the unknown plasma samples using the same procedure. The processed plasma samples were stored at −80° C. until the LC-MS/MS analysis, at which time peak areas were recorded, and the concentrations of the test compound in the unknown plasma samples were determined using the respective calibration curve. The reportable linear range of the assay was determined, along with the lower limit of quantitation (LOQ). […]

Which “concentration in blood with respect to time” value does the source give for `O=C1CC[C@@]2(O)[C@H]3Cc4ccc(O)c5c4[C@@]2(CCN3CC2CC2)[C@H]1O5` [Naltrexone] here?
The value was “raised rapidly and reached the highest level”.
